# Data as given in PubChem BioAssay (NCI).
#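 1) Cells in 96-well plates. 2) Compound, 48 h, 5 concentrations. 3) Linear interpolation between surrounding doses. 4) Unreached endpoint = highest concentration. GI50 marks 50% less growth. The concentration for full growth arrest is given as TGI.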
# Key:
# Experiment in all cases: NCI-60 cell line screen, 48 h
# [1] = test system: MOLT-4 leukemia
# [2] = test system: DMS 273 small cell lung
# [3] = test system: SNB-19 CNS
# [4] = test system: LXFL 529 NSCLC
# [5] = test system: CAKI-1 renal
# [6] = test system: NCI-H23 lung
# [7] = test system: RPMI-8226 leukemia
# [8] = test system: SK-MEL-5 melanoma
# [9] = test system: TK-10 renal
# [10] = test system: UACC-257 melanoma
# [11] = test system: DLD-1 colon
# [12] = test system: K-562 leukemia
# [13] = test system: SF-295 CNS
# [14] = test system: RXF 393 renal
# [15] = test system: 786-0 renal
# [16] = test system: SK-MEL-28 melanoma
# [17] = test system: LOX IMVI melanoma
# [18] = test system: OVCAR-4 ovarian
# [19] = test system: HCT-116 colon
# [20] = test system: SNB-75 CNS
# [21] = test system: SK-MEL-2 melanoma
# [22] = test system: KM12 colon
# [23] = test system: HT29 colon
# [24] = test system: UACC-62 melanoma
# [25] = test system: NCI-H226 lung
# [26] = test system: A549 NSCLC
# [27] = test system: XF 498 CNS
# [28] = test system: NCI-H522 lung
# [29] = test system: KM20L2 colon
# [30] = test system: EKVX NSCLC
# [31] = test system: U251 CNS
# [32] = test system: OVCAR-3 ovarian
# [33] = test system: UO-31 renal
# [34] = test system: HCT-15 colon
# [35] = test system: IGROV1 ovarian
# [36] = test system: M19-MEL melanoma
# [37] = test system: NCI-H460 lung
# [38] = test system: OVCAR-8 ovarian
# [39] = test system: HOP-18 NSCLC
# [40] = test system: HOP-92 NSCLC
# [41] = test system: CCRF-CEM leukemia
# [42] = test system: HOP-62 NSCLC
# [43] = test system: OVCAR-5 ovarian
# [44] = test system: SF-268 CNS
# [45] = test system: SNB-78 CNS
# [46] = test system: SN12C renal
# [47] = test system: SF-539 CNS
# [48] = test system: SR leukemia
# [49] = test system: SK-OV-3 ovarian
# [50] = test system: M14 melanoma
# [51] = test system: HL-60(TB) leukemia
# [52] = test system: ACHN renal
# [53] = test system: SW-620 colon
# [54] = test system: COLO 205 colon
# [55] = test system: HCC-2998 colon
# [56] = test system: DMS 114 small cell lung
# [57] = test system: A498 renal
# [58] = test system: RXF-631 renal
# [59] = test system: MALME-3M melanoma
smiles,measurement,setting,value
CC(=O)OCC(CC[CH2][Sn]([Cl])([Cl])[c]1ccccc1)OC(C)=O (stereo not given),GI50,[1],22 µM
same,TGI,[1],63.7 µM
same,GI50,[2],20.6 µM
same,TGI,[2],43.3 µM
same,GI50,[3],27.7 µM
same,TGI,[3],74.6 µM
same,GI50,[4],14 µM
same,TGI,[4],27 µM
same,GI50,[5],14.6 µM
same,TGI,[5],30.9 µM
same,GI50,[6],19.5 µM
same,TGI,[6],39.4 µM
same,GI50,[7],22.9 µM
same,TGI,[7],58.9 µM
same,GI50,[8],21.5 µM
same,TGI,[8],55.5 µM
same,GI50,[9],27.5 µM
same,TGI,[9],> 100 µM
same,GI50,[10],32.2 µM
same,TGI,[10],95.4 µM
same,GI50,[11],21.2 µM
same,TGI,[11],47.2 µM
same,GI50,[12],24.9 µM
same,TGI,[12],71.8 µM
same,GI50,[13],24.5 µM
same,TGI,[13],60 µM
same,GI50,[14],18.5 µM
same,TGI,[14],34.2 µM
same,GI50,[15],19.1 µM
same,TGI,[15],38 µM
same,GI50,[16],40.9 µM
same,TGI,[16],58.6 µM
same,GI50,[17],16.8 µM
same,TGI,[17],31.6 µM
same,GI50,[18],16.4 µM
same,TGI,[18],31.4 µM
same,GI50,[19],18 µM
same,TGI,[19],31.9 µM
same,GI50,[20],55.8 µM
same,TGI,[20],> 100 µM
same,GI50,[21],18.8 µM
same,TGI,[21],36.4 µM
same,GI50,[22],17.8 µM
same,TGI,[22],33.2 µM
same,GI50,[23],32.3 µM
same,TGI,[23],94.9 µM
same,GI50,[24],12.6 µM
same,TGI,[24],25.6 µM
same,GI50,[25],30.7 µM
same,TGI,[25],> 100 µM
same,GI50,[26],21.9 µM
same,TGI,[26],53 µM
same,GI50,[27],17.8 µM
same,TGI,[27],32.2 µM
same,GI50,[28],41.1 µM
same,TGI,[28],55.6 µM
same,GI50,[29],24.8 µM
same,TGI,[29],52 µM
same,GI50,[30],44.4 µM
same,TGI,[30],> 100 µM
same,GI50,[31],20.4 µM
same,TGI,[31],38.5 µM
same,GI50,[32],20 µM
same,TGI,[32],42.8 µM
same,GI50,[33],17.2 µM
same,TGI,[33],33 µM
same,GI50,[34],17.4 µM
same,TGI,[34],32.1 µM
same,GI50,[35],25.5 µM
same,TGI,[35],68.8 µM
same,GI50,[36],25.1 µM
same,TGI,[36],62.1 µM
same,GI50,[37],19.6 µM
same,TGI,[37],38.8 µM
same,GI50,[38],17.5 µM
same,TGI,[38],32.9 µM
same,GI50,[39],16.5 µM
same,TGI,[39],40 µM
same,GI50,[40],17.1 µM
same,TGI,[40],33.4 µM
same,GI50,[41],21.3 µM
same,TGI,[41],68.6 µM
same,GI50,[42],23.9 µM
same,TGI,[42],46.8 µM
same,GI50,[43],15.7 µM
same,TGI,[43],42 µM
same,GI50,[44],18.6 µM
same,TGI,[44],33.9 µM
same,GI50,[45],27.5 µM
same,TGI,[45],48.7 µM
same,GI50,[46],21 µM
same,TGI,[46],41 µM
same,GI50,[47],22 µM
same,TGI,[47],42.5 µM
same,GI50,[48],10.7 µM
same,TGI,[48],50.4 µM
same,GI50,[49],21.1 µM
same,TGI,[49],44.2 µM
same,GI50,[50],16.2 µM
same,TGI,[50],29.7 µM
same,GI50,[51],16.8 µM
same,TGI,[51],42.6 µM
same,GI50,[52],23.9 µM
same,TGI,[52],42.6 µM
same,GI50,[53],16.7 µM
same,TGI,[53],30.3 µM
same,GI50,[54],17.3 µM
same,TGI,[54],31.2 µM
same,GI50,[55],28.2 µM
same,TGI,[55],83.1 µM
C[C@H]1C(=O)c2c(cc(O)c(C3OC(CO)C(O)C(O)C3O)c2O)OC1c1ccc(O)c(O)c1 (stereo not given in full),TGI,[1],> 100 µM
same,TGI,[56],> 100 µM
same,TGI,[3],> 100 µM
same,TGI,[57],> 100 µM
same,TGI,[6],> 100 µM
same,TGI,[9],> 100 µM
same,TGI,[10],> 100 µM
same,TGI,[13],> 100 µM
same,TGI,[14],> 100 µM
same,TGI,[16],> 100 µM
same,TGI,[58],> 100 µM
same,TGI,[19],> 100 µM
same,TGI,[22],> 100 µM
same,TGI,[23],> 100 µM
same,TGI,[24],> 100 µM
same,TGI,[25],98.9 µM
same,TGI,[26],> 100 µM
same,TGI,[28],> 100 µM
same,TGI,[30],> 100 µM
same,TGI,[31],> 100 µM
same,TGI,[33],> 100 µM
same,TGI,[35],> 100 µM
same,TGI,[36],> 100 µM
same,TGI,[37],> 100 µM
same,TGI,[38],> 100 µM
same,TGI,[40],> 100 µM
same,TGI,[41],> 100 µM
same,TGI,[42],> 100 µM
same,TGI,[43],> 100 µM
same,TGI,[45],> 100 µM
same,TGI,[48],> 100 µM
same,TGI,[49],> 100 µM
same,TGI,[50],> 100 µM
same,TGI,[51],> 100 µM
same,TGI,[52],> 100 µM
O=c1ccc2ccccc2c2ccccc12,TGI,[1],20.3 µM
same,TGI,[56],4.7 µM
same,TGI,[2],14.3 µM
same,TGI,[3],8.73 µM
same,TGI,[4],10.4 µM
same,TGI,[5],8.55 µM
same,TGI,[57],52.2 µM
same,TGI,[6],6.33 µM
same,TGI,[7],7.83 µM
same,TGI,[8],12.7 µM
same,TGI,[9],28 µM
same,TGI,[10],16.6 µM
same,TGI,[11],14.7 µM
same,TGI,[12],33.1 µM
same,TGI,[13],13.3 µM
same,TGI,[15],10.1 µM
same,TGI,[16],16.8 µM
same,TGI,[17],3.99 µM
same,TGI,[18],20.4 µM
same,TGI,[19],11.4 µM
same,TGI,[20],10.8 µM
same,TGI,[21],16.2 µM
same,TGI,[22],5.76 µM
same,TGI,[23],6.78 µM
same,TGI,[24],7.12 µM
same,TGI,[25],15.1 µM
same,TGI,[26],31.8 µM
same,TGI,[28],11.2 µM
same,TGI,[29],3.85 µM
same,TGI,[30],35.8 µM
same,TGI,[31],4.93 µM
same,TGI,[32],11.5 µM
same,TGI,[33],13.8 µM
same,TGI,[34],5.64 µM
same,TGI,[35],19 µM
same,TGI,[36],10.7 µM
same,TGI,[37],13.8 µM
same,TGI,[59],22.3 µM
same,TGI,[38],4.61 µM
same,TGI,[39],14.9 µM
same,TGI,[41],11.4 µM
same,TGI,[42],11.2 µM
same,TGI,[43],6.7 µM
same,TGI,[44],6.19 µM
same,TGI,[45],17.7 µM
same,TGI,[46],6.44 µM
same,TGI,[47],4.09 µM
same,TGI,[48],4.66 µM
same,TGI,[49],13 µM
same,TGI,[50],6.52 µM
same,TGI,[51],9.97 µM
same,TGI,[52],12.4 µM
same,TGI,[53],10.9 µM
same,TGI,[54],18.3 µM
same,TGI,[55],21.4 µM
